In ChEMBL document CHEMBL1131542, “A potent dipeptide inhibitor of dipeptidyl peptidase IV” (Bioorg Med Chem Lett, 1998) one finds inhibition data, which are given here for 14 compounds.

Square brackets hold non-standard residues; d marks the D form. Peptide text beside a SMILES is read from it. Tic = O=C(O)[C@@H]1Cc2ccccc2CN1

A word on the inhibition: it is the share of the control response that was lost under treatment. Read a high inhibition as strong suppression.

In the assay the target is Dipeptidyl peptidase 4 (Homo sapiens, UniProt P27487). The assay is described as follows: Percent inhibition against Dipeptidyl peptidase IV (DPP IV) at a concentration of 1 uM.
Dipeptidyl peptidase 4, sequence (P27487 whole entry, looked up): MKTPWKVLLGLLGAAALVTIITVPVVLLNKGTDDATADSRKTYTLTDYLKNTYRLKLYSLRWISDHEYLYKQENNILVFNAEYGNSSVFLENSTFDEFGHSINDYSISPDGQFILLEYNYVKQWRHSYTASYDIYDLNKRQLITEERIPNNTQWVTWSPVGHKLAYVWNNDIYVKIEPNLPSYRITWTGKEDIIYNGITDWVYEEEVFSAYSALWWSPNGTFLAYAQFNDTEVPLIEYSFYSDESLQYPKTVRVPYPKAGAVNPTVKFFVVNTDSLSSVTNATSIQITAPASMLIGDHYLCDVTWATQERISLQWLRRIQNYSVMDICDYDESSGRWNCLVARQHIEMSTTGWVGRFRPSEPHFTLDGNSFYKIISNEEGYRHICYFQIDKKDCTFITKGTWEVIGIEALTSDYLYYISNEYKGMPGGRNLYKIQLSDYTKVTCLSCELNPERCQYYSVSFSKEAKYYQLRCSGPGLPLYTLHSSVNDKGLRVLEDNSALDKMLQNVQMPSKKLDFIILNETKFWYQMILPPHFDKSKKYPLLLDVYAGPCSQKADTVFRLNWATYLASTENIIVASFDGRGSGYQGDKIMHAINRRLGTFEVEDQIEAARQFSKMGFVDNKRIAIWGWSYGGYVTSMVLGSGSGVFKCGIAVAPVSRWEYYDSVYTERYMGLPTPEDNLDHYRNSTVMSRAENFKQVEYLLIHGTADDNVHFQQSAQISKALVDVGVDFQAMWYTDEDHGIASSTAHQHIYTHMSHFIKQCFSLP
Take `CC[C@H](C)[C@H](NC(=O)[C@H](Cc1c[nH]cn1)NC(=O)CNC(=O)[C@H](CCC(=O)O)NC(=O)[C@H](CCC(N)=O)NC(=O)[C@H](CC(=O)O)NC(=O)[C@H](CC(N)=O)NC(=O)[C@H](CCCN=C(N)N)NC(=O)[C@H](C)NC(=O)[C@@H]1Cc2ccccc2CN1C(=O)[C@@H](N)CCC(=O)O)C(=O)N[C@@H](CC(C)C)C(=O)N[C@@H](CCCCN)C(=O)N[C@@H](CCSC)C(=O)N[C@@H](Cc1ccccc1)C(=O)N1CCC[C@H]1C(=O)N[C@@H](CO)C(=O)N[C@H](C(=O)N[C@@H](Cc1c[nH]c2ccccc12)C(=O)N[C@@H](Cc1ccc(O)cc1)C(=O)N[C@H](C(=O)O)C(C)C)[C@@H](C)O` (H-E[Tic]ARNDQEGHILKMFPSTWYV-OH): the inhibition turned out to be 4%. The result for `CC[C@H](C)[C@H](NC(=O)[C@H](Cc1c[nH]cn1)NC(=O)CNC(=O)[C@H](CCC(=O)O)NC(=O)[C@H](CCC(N)=O)NC(=O)[C@H](CC(=O)O)NC(=O)[C@H](CC(N)=O)NC(=O)[C@H](CCCN=C(N)N)NC(=O)[C@H](C)NC(=O)[C@@H]1Cc2ccccc2CN1C(=O)[C@@H](N)Cc1ccccc1)C(=O)N[C@@H](CC(C)C)C(=O)N[C@@H](CCCCN)C(=O)N[C@@H](CCSC)C(=O)N[C@@H](Cc1ccccc1)C(=O)N1CCC[C@H]1C(=O)N[C@@H](CO)C(=O)N[C@H](C(=O)N[C@@H](Cc1c[nH]c2ccccc12)C(=O)N[C@@H](Cc1ccc(O)cc1)C(=O)N[C@H](C(=O)O)C(C)C)[C@@H](C)O` (H-F[Tic]ARNDQEGHILKMFPSTWYV-OH) reads 4%; that for `CC[C@H](C)[C@H](NC(=O)[C@H](Cc1c[nH]cn1)NC(=O)CNC(=O)[C@H](CCC(=O)O)NC(=O)[C@H](CCC(N)=O)NC(=O)[C@H](CC(=O)O)NC(=O)[C@H](CC(N)=O)NC(=O)[C@H](CCCN=C(N)N)NC(=O)[C@H](C)NC(=O)[C@@H]1Cc2ccccc2CN1C(=O)CN)C(=O)N[C@@H](CC(C)C)C(=O)N[C@@H](CCCCN)C(=O)N[C@@H](CCSC)C(=O)N[C@@H](Cc1ccccc1)C(=O)N1CCC[C@H]1C(=O)N[C@@H](CO)C(=O)N[C@H](C(=O)N[C@@H](Cc1c[nH]c2ccccc12)C(=O)N[C@@H](Cc1ccc(O)cc1)C(=O)N[C@H](C(=O)O)C(C)C)[C@@H](C)O` (H-G[Tic]ARNDQEGHILKMFPSTWYV-OH), 0%; that for `CC[C@H](C)[C@H](NC(=O)[C@H](Cc1c[nH]cn1)NC(=O)CNC(=O)[C@H](CCC(=O)O)NC(=O)[C@H](CCC(N)=O)NC(=O)[C@H](CC(=O)O)NC(=O)[C@H](CC(N)=O)NC(=O)[C@H](CCCN=C(N)N)NC(=O)[C@H](C)NC(=O)[C@@H]1Cc2ccccc2CN1C(=O)[C@@H](N)Cc1c[nH]cn1)C(=O)N[C@@H](CC(C)C)C(=O)N[C@@H](CCCCN)C(=O)N[C@@H](CCSC)C(=O)N[C@@H](Cc1ccccc1)C(=O)N1CCC[C@H]1C(=O)N[C@@H](CO)C(=O)N[C@H](C(=O)N[C@@H](Cc1c[nH]c2ccccc12)C(=O)N[C@@H](Cc1ccc(O)cc1)C(=O)N[C@H](C(=O)O)C(C)C)[C@@H](C)O` (H-H[Tic]ARNDQEGHILKMFPSTWYV-OH), 7%. The result for `CC[C@H](C)[C@H](N)C(=O)N1Cc2ccccc2C[C@H]1C(=O)N[C@@H](C)C(=O)N[C@@H](CCCN=C(N)N)C(=O)N[C@@H](CC(N)=O)C(=O)N[C@@H](CC(=O)O)C(=O)N[C@@H](CCC(N)=O)C(=O)N[C@@H](CCC(=O)O)C(=O)NCC(=O)N[C@@H](Cc1c[nH]cn1)C(=O)N[C@H](C(=O)N[C@@H](CC(C)C)C(=O)N[C@@H](CCCCN)C(=O)N[C@@H](CCSC)C(=O)N[C@@H](Cc1ccccc1)C(=O)N1CCC[C@H]1C(=O)N[C@@H](CO)C(=O)N[C@H](C(=O)N[C@@H](Cc1c[nH]c2ccccc12)C(=O)N[C@@H](Cc1ccc(O)cc1)C(=O)N[C@H](C(=O)O)C(C)C)[C@@H](C)O)[C@@H](C)CC` (H-I[Tic]ARNDQEGHILKMFPSTWYV-OH) reads 6%; that for `CC[C@H](C)[C@H](NC(=O)[C@H](Cc1c[nH]cn1)NC(=O)CNC(=O)[C@H](CCC(=O)O)NC(=O)[C@H](CCC(N)=O)NC(=O)[C@H](CC(=O)O)NC(=O)[C@H](CC(N)=O)NC(=O)[C@H](CCCN=C(N)N)NC(=O)[C@H](C)NC(=O)[C@@H]1Cc2ccccc2CN1C(=O)[C@@H](N)CCCCN)C(=O)N[C@@H](CC(C)C)C(=O)N[C@@H](CCCCN)C(=O)N[C@@H](CCSC)C(=O)N[C@@H](Cc1ccccc1)C(=O)N1CCC[C@H]1C(=O)N[C@@H](CO)C(=O)N[C@H](C(=O)N[C@@H](Cc1c[nH]c2ccccc12)C(=O)N[C@@H](Cc1ccc(O)cc1)C(=O)N[C@H](C(=O)O)C(C)C)[C@@H](C)O` (H-K[Tic]ARNDQEGHILKMFPSTWYV-OH), 7%. The result for `CC[C@H](C)[C@H](NC(=O)[C@H](Cc1c[nH]cn1)NC(=O)CNC(=O)[C@H](CCC(=O)O)NC(=O)[C@H](CCC(N)=O)NC(=O)[C@H](CC(=O)O)NC(=O)[C@H](CC(N)=O)NC(=O)[C@H](CCCN=C(N)N)NC(=O)[C@H](C)NC(=O)[C@@H]1Cc2ccccc2CN1C(=O)[C@@H](N)CC(C)C)C(=O)N[C@@H](CC(C)C)C(=O)N[C@@H](CCCCN)C(=O)N[C@@H](CCSC)C(=O)N[C@@H](Cc1ccccc1)C(=O)N1CCC[C@H]1C(=O)N[C@@H](CO)C(=O)N[C@H](C(=O)N[C@@H](Cc1c[nH]c2ccccc12)C(=O)N[C@@H](Cc1ccc(O)cc1)C(=O)N[C@H](C(=O)O)C(C)C)[C@@H](C)O` (H-L[Tic]ARNDQEGHILKMFPSTWYV-OH) reads 7%; that for `CC[C@H](C)[C@H](NC(=O)[C@H](Cc1c[nH]cn1)NC(=O)CNC(=O)[C@H](CCC(=O)O)NC(=O)[C@H](CCC(N)=O)NC(=O)[C@H](CC(=O)O)NC(=O)[C@H](CC(N)=O)NC(=O)[C@H](CCCN=C(N)N)NC(=O)[C@H](C)NC(=O)[C@@H]1Cc2ccccc2CN1C(=O)[C@@H](N)CCSC)C(=O)N[C@@H](CC(C)C)C(=O)N[C@@H](CCCCN)C(=O)N[C@@H](CCSC)C(=O)N[C@@H](Cc1ccccc1)C(=O)N1CCC[C@H]1C(=O)N[C@@H](CO)C(=O)N[C@H](C(=O)N[C@@H](Cc1c[nH]c2ccccc12)C(=O)N[C@@H](Cc1ccc(O)cc1)C(=O)N[C@H](C(=O)O)C(C)C)[C@@H](C)O` (H-M[Tic]ARNDQEGHILKMFPSTWYV-OH), 6%; that for `CC[C@H](C)[C@H](NC(=O)[C@H](Cc1c[nH]cn1)NC(=O)CNC(=O)[C@H](CCC(=O)O)NC(=O)[C@H](CCC(N)=O)NC(=O)[C@H](CC(=O)O)NC(=O)[C@H](CC(N)=O)NC(=O)[C@H](CCCN=C(N)N)NC(=O)[C@H](C)NC(=O)[C@@H]1Cc2ccccc2CN1C(=O)[C@@H](N)CC(N)=O)C(=O)N[C@@H](CC(C)C)C(=O)N[C@@H](CCCCN)C(=O)N[C@@H](CCSC)C(=O)N[C@@H](Cc1ccccc1)C(=O)N1CCC[C@H]1C(=O)N[C@@H](CO)C(=O)N[C@H](C(=O)N[C@@H](Cc1c[nH]c2ccccc12)C(=O)N[C@@H](Cc1ccc(O)cc1)C(=O)N[C@H](C(=O)O)C(C)C)[C@@H](C)O` (H-N[Tic]ARNDQEGHILKMFPSTWYV-OH), 9%.

Consider `CC[C@H](C)[C@H](NC(=O)[C@H](Cc1c[nH]cn1)NC(=O)CNC(=O)[C@H](CCC(=O)O)NC(=O)[C@H](CCC(N)=O)NC(=O)[C@H](CC(=O)O)NC(=O)[C@H](CC(N)=O)NC(=O)[C@H](CCCN=C(N)N)NC(=O)[C@H](C)NC(=O)[C@@H]1Cc2ccccc2CN1C(=O)[C@@H](N)CCC(N)=O)C(=O)N[C@@H](CC(C)C)C(=O)N[C@@H](CCCCN)C(=O)N[C@@H](CCSC)C(=O)N[C@@H](Cc1ccccc1)C(=O)N1CCC[C@H]1C(=O)N[C@@H](CO)C(=O)N[C@H](C(=O)N[C@@H](Cc1c[nH]c2ccccc12)C(=O)N[C@@H](Cc1ccc(O)cc1)C(=O)N[C@H](C(=O)O)C(C)C)[C@@H](C)O` (H-Q[Tic]ARNDQEGHILKMFPSTWYV-OH), for which the inhibition worked out at 4%.

The compound `CC[C@H](C)[C@H](NC(=O)[C@H](Cc1c[nH]cn1)NC(=O)CNC(=O)[C@H](CCC(=O)O)NC(=O)[C@H](CCC(N)=O)NC(=O)[C@H](CC(=O)O)NC(=O)[C@H](CC(N)=O)NC(=O)[C@H](CCCN=C(N)N)NC(=O)[C@H](C)NC(=O)[C@@H]1Cc2ccccc2CN1C(=O)[C@@H](N)CCCN=C(N)N)C(=O)N[C@@H](CC(C)C)C(=O)N[C@@H](CCCCN)C(=O)N[C@@H](CCSC)C(=O)N[C@@H](Cc1ccccc1)C(=O)N1CCC[C@H]1C(=O)N[C@@H](CO)C(=O)N[C@H](C(=O)N[C@@H](Cc1c[nH]c2ccccc12)C(=O)N[C@@H](Cc1ccc(O)cc1)C(=O)N[C@H](C(=O)O)C(C)C)[C@@H](C)O` (H-R[Tic]ARNDQEGHILKMFPSTWYV-OH) came in with an inhibition of 10%. On to `CC[C@H](C)[C@H](NC(=O)[C@H](Cc1c[nH]cn1)NC(=O)CNC(=O)[C@H](CCC(=O)O)NC(=O)[C@H](CCC(N)=O)NC(=O)[C@H](CC(=O)O)NC(=O)[C@H](CC(N)=O)NC(=O)[C@H](CCCN=C(N)N)NC(=O)[C@H](C)NC(=O)[C@@H]1Cc2ccccc2CN1C(=O)[C@@H](N)CO)C(=O)N[C@@H](CC(C)C)C(=O)N[C@@H](CCCCN)C(=O)N[C@@H](CCSC)C(=O)N[C@@H](Cc1ccccc1)C(=O)N1CCC[C@H]1C(=O)N[C@@H](CO)C(=O)N[C@H](C(=O)N[C@@H](Cc1c[nH]c2ccccc12)C(=O)N[C@@H](Cc1ccc(O)cc1)C(=O)N[C@H](C(=O)O)C(C)C)[C@@H](C)O` (H-S[Tic]ARNDQEGHILKMFPSTWYV-OH), for which the inhibition was determined as 10%. Under `CC[C@H](C)[C@H](NC(=O)[C@H](Cc1c[nH]cn1)NC(=O)CNC(=O)[C@H](CCC(=O)O)NC(=O)[C@H](CCC(N)=O)NC(=O)[C@H](CC(=O)O)NC(=O)[C@H](CC(N)=O)NC(=O)[C@H](CCCN=C(N)N)NC(=O)[C@H](C)NC(=O)[C@@H]1Cc2ccccc2CN1C(=O)[C@@H](N)[C@@H](C)O)C(=O)N[C@@H](CC(C)C)C(=O)N[C@@H](CCCCN)C(=O)N[C@@H](CCSC)C(=O)N[C@@H](Cc1ccccc1)C(=O)N1CCC[C@H]1C(=O)N[C@@H](CO)C(=O)N[C@H](C(=O)N[C@@H](Cc1c[nH]c2ccccc12)C(=O)N[C@@H](Cc1ccc(O)cc1)C(=O)N[C@H](C(=O)O)C(C)C)[C@@H](C)O` (H-T[Tic]ARNDQEGHILKMFPSTWYV-OH) stands 17%; under `CC[C@H](C)[C@H](NC(=O)[C@H](Cc1c[nH]cn1)NC(=O)CNC(=O)[C@H](CCC(=O)O)NC(=O)[C@H](CCC(N)=O)NC(=O)[C@H](CC(=O)O)NC(=O)[C@H](CC(N)=O)NC(=O)[C@H](CCCN=C(N)N)NC(=O)[C@H](C)NC(=O)[C@@H]1Cc2ccccc2CN1C(=O)[C@@H](N)C(C)C)C(=O)N[C@@H](CC(C)C)C(=O)N[C@@H](CCCCN)C(=O)N[C@@H](CCSC)C(=O)N[C@@H](Cc1ccccc1)C(=O)N1CCC[C@H]1C(=O)N[C@@H](CO)C(=O)N[C@H](C(=O)N[C@@H](Cc1c[nH]c2ccccc12)C(=O)N[C@@H](Cc1ccc(O)cc1)C(=O)N[C@H](C(=O)O)C(C)C)[C@@H](C)O` (H-V[Tic]ARNDQEGHILKMFPSTWYV-OH), 3%.
